# Test results published in publication PMC8179515 (Chemical Science, 2021).
# What was measured:
# [1] = molecular target: Aβ1-42 oligomers (Aβo) (Homo sapiens, UniProt P05067); assay type: binding
# [2] = tested on: albumin; details: cited from earlier work
# [3] = tested on: monomeric amyloid-β; details: cited from earlier work
# Aβ1-42 oligomers (Aβo), sequence (P05067 672-713): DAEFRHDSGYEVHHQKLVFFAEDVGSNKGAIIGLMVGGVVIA
compound,measurement,setting,value
C=C(c1ccc(C(=O)O)cc1)c1cc2c(cc1C)C(C)(C)CCC2(C)C [Bexarotene],Highest% STD,[1],14.60%
CC(C(=O)O)c1ccc(-c2ccccc2)c(F)c1 (stereo not drawn) [flurbiprofen],bound to albumin,[2],> 99%
solanezumab,affinity for central epitope KLVFFAED,[3],picomolar affinity
